From the kinase profiling compilation of Christmann-Franck et al. (2016)

Experiments:
CLK2 (human) = CLK2 (human) (UniProt P49760); assay: KINOMEscan competition binding; details: compound 10.0 µM
GSK3A (human) = GSK3A (human) (UniProt P49840); assay: KINOMEscan competition binding; details: compound 10.0 µM
CSNK2A2 (human) = CSNK2A2 (human) (UniProt P19784); assay: KINOMEscan competition binding; details: compound 10.0 µM
STK17B (human) = STK17B (human) (UniProt O94768); assay: KINOMEscan competition binding; details: compound 10.0 µM
MAPK8 (human) = MAPK8 (human) (UniProt P45983); assay: KINOMEscan competition binding; details: compound 10.0 µM
MAP3K7 (human) = MAP3K7 (human) (UniProt O43318); assay: KINOMEscan competition binding; details: compound 10.0 µM
TAOK1 (human) = TAOK1 (human) (UniProt Q7L7X3); assay: KINOMEscan competition binding; details: compound 10.0 µM
TTK (human) = TTK (human) (UniProt P33981); assay: KINOMEscan competition binding; details: compound 10.0 µM
CAMK1 (human) = CAMK1 (human) (UniProt Q14012); assay: KINOMEscan competition binding; details: compound 10.0 µM
STK16 (human) = STK16 (human) (UniProt O75716); assay: KINOMEscan competition binding; details: compound 10.0 µM
PIM3 (human) = PIM3 (human) (UniProt Q86V86); assay: KINOMEscan competition binding; details: compound 10.0 µM
PAK4 (human) = PAK4 (human) (UniProt O96013); assay: KINOMEscan competition binding; details: compound 10.0 µM
DAPK2 (human) = DAPK2 (human) (UniProt Q9UIK4); assay: KINOMEscan competition binding; details: compound 10.0 µM
PIM1 (human) [1] = target: PIM1 (human) (UniProt P11309); assay: KINOMEscan competition binding; details: compound 10.0 µM
PIM2 (human) [2] = target: PIM2 (human) (UniProt Q9P1W9); assay: KINOMEscan competition binding; details: compound 10.0 µM
TGFBR2 (human) = TGFBR2 (human) (UniProt P37173); assay: KINOMEscan competition binding; details: compound 10.0 µM
RIPK4 (human) = RIPK4 (human) (UniProt P57078); assay: KINOMEscan competition binding; details: compound 10.0 µM
[3] = target: TYK2 JH2 pseudokinase (human) (UniProt P29597); assay: KINOMEscan competition binding; details: compound 10.0 µM
PAK6 (human) = PAK6 (human) (UniProt Q9NQU5); assay: KINOMEscan competition binding; details: compound 10.0 µM
LATS2 (human) = LATS2 (human) (UniProt Q9NRM7); assay: KINOMEscan competition binding; details: compound 10.0 µM
PAK7 (human) = PAK7 (human) (UniProt Q9P286); assay: KINOMEscan competition binding; details: compound 10.0 µM
DAPK1 (human) = DAPK1 (human) (UniProt P53355); assay: KINOMEscan competition binding; details: compound 10.0 µM
ACVR2B (human) = ACVR2B (human) (UniProt Q13705); assay: KINOMEscan competition binding; details: compound 10.0 µM
PHKG2 (human) = PHKG2 (human) (UniProt P15735); assay: KINOMEscan competition binding; details: compound 10.0 µM
CAMK1D (human) = CAMK1D (human) (UniProt Q8IU85); assay: KINOMEscan competition binding; details: compound 10.0 µM
EPHA3 (human) = EPHA3 (human) (UniProt P29320); assay: KINOMEscan competition binding; details: compound 10.0 µM
GAK (human) = GAK (human) (UniProt O14976); assay: KINOMEscan competition binding; details: compound 10.0 µM
AAK1 (human) = AAK1 (human) (UniProt Q2M2I8); assay: KINOMEscan competition binding; details: compound 10.0 µM
MAPK10 (human) = MAPK10 (human) (UniProt P53779); assay: KINOMEscan competition binding; details: compound 10.0 µM
STK17A (human) = STK17A (human) (UniProt Q9UEE5); assay: KINOMEscan competition binding; details: compound 10.0 µM
TAOK3 (human) = TAOK3 (human) (UniProt Q9H2K8); assay: KINOMEscan competition binding; details: compound 10.0 µM
CSK (human) = CSK (human) (UniProt P41240); assay: KINOMEscan competition binding; details: compound 10.0 µM
DDR1 (human) = DDR1 (human) (UniProt Q08345); assay: KINOMEscan competition binding; details: compound 10.0 µM
MYLK (human) = MYLK (human) (UniProt Q15746); assay: KINOMEscan competition binding; details: compound 10.0 µM
PLK4 (human) = PLK4 (human) (UniProt O00444); assay: KINOMEscan competition binding; details: compound 10.0 µM
MAP2K3 (human) = MAP2K3 (human) (UniProt P46734); assay: KINOMEscan competition binding; details: compound 10.0 µM
HIPK1 (human) = HIPK1 (human) (UniProt Q86Z02); assay: KINOMEscan competition binding; details: compound 10.0 µM
DAPK3 (human) = DAPK3 (human) (UniProt O43293); assay: KINOMEscan competition binding; details: compound 10.0 µM
CAMK2B (human) = CAMK2B (human) (UniProt Q13554); assay: KINOMEscan competition binding; details: compound 10.0 µM
PIM1 (human) [4] = target: PIM1 (human) (UniProt P11309); assay: SelectScreen, TR FRET
PIM2 (human) [5] = target: PIM2 (human) (UniProt Q9P1W9); assay: SelectScreen, TR FRET
PIK3CD (human) = PIK3CD (human) (UniProt O00329); assay: KINOMEscan competition binding; details: compound 10.0 µM
PIK3C2B (human) = PIK3C2B (human) (UniProt O00750); assay: KINOMEscan competition binding; details: compound 10.0 µM
MAP2K4 (human) = MAP2K4 (human) (UniProt P45985); assay: KINOMEscan competition binding; details: compound 10.0 µM
[6] = tested on: EGFR (human), P00533 [P753S; 747-752 del]; assay: KINOMEscan competition binding; details: compound 10.0 µM
PIK3CB (human) = PIK3CB (human) (UniProt P42338); assay: KINOMEscan competition binding; details: compound 10.0 µM
[7] = tested on: EGFR (human), P00533 [G719S]; assay: KINOMEscan competition binding; details: compound 10.0 µM
MAP2K2 (human) = MAP2K2 (human) (UniProt P36507); assay: KINOMEscan competition binding; details: compound 10.0 µM
[8] = tested on: EGFR (human), P00533 [747-751 del / S ins]; assay: KINOMEscan competition binding; details: compound 10.0 µM

Sequence of PIM1 (human) (P11309 whole entry, looked up): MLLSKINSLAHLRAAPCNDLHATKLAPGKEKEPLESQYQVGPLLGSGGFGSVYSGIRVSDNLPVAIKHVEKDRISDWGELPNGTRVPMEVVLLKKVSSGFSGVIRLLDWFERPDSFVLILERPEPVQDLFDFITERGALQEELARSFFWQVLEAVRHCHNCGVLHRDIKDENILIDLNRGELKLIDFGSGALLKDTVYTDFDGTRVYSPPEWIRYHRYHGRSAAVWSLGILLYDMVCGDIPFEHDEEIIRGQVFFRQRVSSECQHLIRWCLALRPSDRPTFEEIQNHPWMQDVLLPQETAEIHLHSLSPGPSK
Sequence of PIM2 (human) (Q9P1W9 whole entry, looked up): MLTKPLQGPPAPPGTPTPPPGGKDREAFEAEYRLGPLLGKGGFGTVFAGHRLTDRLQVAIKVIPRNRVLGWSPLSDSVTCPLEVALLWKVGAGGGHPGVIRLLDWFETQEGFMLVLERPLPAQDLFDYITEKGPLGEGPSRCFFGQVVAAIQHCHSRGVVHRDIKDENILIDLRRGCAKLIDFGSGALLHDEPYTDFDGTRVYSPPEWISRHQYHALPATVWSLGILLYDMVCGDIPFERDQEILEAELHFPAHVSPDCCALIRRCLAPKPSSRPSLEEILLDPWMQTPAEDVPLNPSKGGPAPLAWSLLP
Sequence of MAPK8 (human) (P45983 whole entry, looked up): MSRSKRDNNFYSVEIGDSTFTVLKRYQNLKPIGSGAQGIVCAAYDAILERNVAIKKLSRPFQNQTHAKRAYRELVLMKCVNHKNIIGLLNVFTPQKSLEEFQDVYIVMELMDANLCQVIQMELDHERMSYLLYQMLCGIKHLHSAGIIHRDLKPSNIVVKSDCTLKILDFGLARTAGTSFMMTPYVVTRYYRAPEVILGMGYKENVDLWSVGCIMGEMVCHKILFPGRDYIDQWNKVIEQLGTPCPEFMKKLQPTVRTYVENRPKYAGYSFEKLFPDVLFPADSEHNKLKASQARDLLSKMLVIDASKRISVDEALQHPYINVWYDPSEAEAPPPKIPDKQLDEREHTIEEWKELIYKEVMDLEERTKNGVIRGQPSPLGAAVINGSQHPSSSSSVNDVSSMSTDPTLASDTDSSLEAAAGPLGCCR
Sequence of MAP2K3 (human) (P46734 whole entry, looked up): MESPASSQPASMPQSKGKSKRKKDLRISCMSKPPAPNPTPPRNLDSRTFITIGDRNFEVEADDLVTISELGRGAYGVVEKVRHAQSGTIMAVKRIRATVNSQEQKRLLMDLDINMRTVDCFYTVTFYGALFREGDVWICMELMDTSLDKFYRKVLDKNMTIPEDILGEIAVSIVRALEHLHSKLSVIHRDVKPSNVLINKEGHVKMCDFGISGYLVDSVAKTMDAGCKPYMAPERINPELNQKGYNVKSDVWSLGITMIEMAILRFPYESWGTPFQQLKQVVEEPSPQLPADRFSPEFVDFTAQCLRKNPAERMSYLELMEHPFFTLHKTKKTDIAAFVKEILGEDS
Sequence of CLK2 (human) (P49760 whole entry, looked up): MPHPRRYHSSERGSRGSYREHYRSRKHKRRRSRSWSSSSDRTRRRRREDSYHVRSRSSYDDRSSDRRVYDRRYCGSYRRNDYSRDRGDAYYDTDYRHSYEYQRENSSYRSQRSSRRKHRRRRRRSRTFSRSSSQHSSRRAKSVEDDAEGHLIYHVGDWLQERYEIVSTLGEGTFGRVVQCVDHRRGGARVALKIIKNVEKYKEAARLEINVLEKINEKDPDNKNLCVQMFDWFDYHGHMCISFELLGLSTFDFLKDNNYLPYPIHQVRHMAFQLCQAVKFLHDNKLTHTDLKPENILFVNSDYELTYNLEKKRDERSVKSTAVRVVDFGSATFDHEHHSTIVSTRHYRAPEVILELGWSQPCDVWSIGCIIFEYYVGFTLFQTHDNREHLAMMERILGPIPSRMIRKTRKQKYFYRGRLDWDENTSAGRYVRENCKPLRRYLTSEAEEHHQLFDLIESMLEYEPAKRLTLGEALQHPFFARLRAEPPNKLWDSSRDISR
Sequence of GAK (human) (O14976 whole entry, looked up): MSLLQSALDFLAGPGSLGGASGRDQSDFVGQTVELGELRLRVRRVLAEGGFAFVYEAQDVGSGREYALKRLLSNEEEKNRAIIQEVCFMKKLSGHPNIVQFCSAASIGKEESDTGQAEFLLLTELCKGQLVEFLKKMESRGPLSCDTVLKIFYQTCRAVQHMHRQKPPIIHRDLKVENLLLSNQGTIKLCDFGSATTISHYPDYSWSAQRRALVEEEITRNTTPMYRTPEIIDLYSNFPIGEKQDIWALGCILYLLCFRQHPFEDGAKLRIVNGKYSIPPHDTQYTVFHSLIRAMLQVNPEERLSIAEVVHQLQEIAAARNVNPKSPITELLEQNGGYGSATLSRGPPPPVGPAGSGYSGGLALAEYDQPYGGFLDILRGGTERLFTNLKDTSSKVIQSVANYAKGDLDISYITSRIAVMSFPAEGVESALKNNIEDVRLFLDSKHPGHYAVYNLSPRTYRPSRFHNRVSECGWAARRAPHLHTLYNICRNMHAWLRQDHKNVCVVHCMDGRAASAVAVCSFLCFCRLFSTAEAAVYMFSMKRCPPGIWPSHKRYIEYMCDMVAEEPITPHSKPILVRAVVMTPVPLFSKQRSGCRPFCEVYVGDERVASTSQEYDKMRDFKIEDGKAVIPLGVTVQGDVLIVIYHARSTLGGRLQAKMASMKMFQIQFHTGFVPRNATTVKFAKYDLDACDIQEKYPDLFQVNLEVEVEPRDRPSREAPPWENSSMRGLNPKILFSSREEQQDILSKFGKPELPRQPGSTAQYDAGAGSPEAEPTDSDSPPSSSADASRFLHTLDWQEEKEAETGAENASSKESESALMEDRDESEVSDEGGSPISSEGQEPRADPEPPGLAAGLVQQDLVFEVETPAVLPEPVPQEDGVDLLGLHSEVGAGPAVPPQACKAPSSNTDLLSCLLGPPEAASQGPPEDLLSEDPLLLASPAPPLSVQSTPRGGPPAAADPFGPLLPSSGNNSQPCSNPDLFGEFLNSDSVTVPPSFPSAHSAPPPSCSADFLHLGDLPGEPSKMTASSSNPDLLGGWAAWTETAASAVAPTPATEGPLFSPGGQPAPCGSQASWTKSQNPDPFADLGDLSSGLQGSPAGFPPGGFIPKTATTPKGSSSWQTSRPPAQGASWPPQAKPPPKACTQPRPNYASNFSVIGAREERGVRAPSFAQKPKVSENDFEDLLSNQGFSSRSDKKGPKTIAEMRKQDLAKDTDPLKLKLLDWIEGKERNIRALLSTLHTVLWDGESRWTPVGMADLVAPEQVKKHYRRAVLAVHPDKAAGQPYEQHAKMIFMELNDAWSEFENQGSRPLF
Sequence of MAP2K4 (human) (P45985 whole entry, looked up): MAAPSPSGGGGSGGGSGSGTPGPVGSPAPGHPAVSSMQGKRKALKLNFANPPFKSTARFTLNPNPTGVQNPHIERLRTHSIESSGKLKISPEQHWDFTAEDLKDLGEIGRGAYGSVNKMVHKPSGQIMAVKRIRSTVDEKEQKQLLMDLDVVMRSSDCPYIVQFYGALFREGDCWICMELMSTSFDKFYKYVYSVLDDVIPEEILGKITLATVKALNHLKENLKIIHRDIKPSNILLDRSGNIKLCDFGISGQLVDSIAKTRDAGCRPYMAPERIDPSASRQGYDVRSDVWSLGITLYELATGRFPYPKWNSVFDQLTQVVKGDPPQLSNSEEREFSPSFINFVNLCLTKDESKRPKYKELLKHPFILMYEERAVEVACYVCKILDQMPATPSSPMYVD
Sequence of EPHA3 (human) (P29320 whole entry, looked up): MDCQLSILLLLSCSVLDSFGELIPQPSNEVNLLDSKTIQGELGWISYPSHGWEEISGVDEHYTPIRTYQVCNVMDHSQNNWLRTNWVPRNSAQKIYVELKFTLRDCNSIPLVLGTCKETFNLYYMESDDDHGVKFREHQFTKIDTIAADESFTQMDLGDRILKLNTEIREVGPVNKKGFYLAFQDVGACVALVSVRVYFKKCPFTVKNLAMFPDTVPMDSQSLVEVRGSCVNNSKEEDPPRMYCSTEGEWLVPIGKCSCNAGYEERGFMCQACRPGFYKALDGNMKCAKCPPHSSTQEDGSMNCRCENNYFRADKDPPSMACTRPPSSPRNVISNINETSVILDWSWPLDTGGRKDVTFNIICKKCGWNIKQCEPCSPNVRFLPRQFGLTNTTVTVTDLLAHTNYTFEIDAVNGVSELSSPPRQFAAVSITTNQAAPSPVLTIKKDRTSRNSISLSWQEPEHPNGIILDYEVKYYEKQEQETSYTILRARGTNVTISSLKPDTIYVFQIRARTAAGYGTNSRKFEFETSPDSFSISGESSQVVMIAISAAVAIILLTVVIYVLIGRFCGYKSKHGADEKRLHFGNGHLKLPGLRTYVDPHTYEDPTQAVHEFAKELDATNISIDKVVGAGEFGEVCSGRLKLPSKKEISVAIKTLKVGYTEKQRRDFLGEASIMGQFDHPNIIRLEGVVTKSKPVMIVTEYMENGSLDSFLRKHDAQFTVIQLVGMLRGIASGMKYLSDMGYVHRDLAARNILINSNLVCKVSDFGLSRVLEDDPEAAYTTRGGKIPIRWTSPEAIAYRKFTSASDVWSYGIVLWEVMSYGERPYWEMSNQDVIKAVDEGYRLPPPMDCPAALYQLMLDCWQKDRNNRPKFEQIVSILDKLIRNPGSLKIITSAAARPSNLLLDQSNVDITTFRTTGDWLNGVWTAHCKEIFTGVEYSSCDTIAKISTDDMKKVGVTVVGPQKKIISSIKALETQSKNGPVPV
Sequence of PHKG2 (human) (P15735 whole entry, looked up): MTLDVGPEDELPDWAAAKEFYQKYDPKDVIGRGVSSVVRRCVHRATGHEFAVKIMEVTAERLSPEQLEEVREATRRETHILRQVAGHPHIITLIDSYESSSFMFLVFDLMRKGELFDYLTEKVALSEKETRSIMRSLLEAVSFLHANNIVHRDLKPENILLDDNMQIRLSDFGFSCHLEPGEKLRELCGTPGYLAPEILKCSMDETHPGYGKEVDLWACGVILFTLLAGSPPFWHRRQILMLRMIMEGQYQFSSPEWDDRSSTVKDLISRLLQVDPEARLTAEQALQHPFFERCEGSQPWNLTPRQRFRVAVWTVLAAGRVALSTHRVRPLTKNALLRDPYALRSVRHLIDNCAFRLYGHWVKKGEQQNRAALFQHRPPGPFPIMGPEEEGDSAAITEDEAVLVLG

SMILES: Cc1cn(-c2cc(NC(=O)c3cccc4cc(-c5ccc(/C=C6\SC(=N)NC6=O)o5)ccc34)cc(C(F)(F)F)c2)cn1
- kinase still bound, per cent of control (CLK2 (human)): 21%
- kinase still bound, per cent of control (GSK3A (human)): 32%
- kinase still bound, per cent of control (CSNK2A2 (human)): 34%
- kinase still bound, per cent of control (STK17B (human)): 0.6%
- kinase still bound, per cent of control (MAPK8 (human)): 14%
- kinase still bound, per cent of control (MAP3K7 (human)): 13%
- kinase still bound, per cent of control (TAOK1 (human)): 5.8%
- kinase still bound, per cent of control (TTK (human)): 18%
- kinase still bound, per cent of control (CAMK1 (human)): 20%
- kinase still bound, per cent of control (STK16 (human)): 22%
- kinase still bound, per cent of control (PIM3 (human)): 1.9%
- kinase still bound, per cent of control (PAK4 (human)): 29%
- kinase still bound, per cent of control (DAPK2 (human)): 7.1%
- kinase still bound, per cent of control (PIM1 (human) [1]): 1.8%
- kinase still bound, per cent of control (PIM2 (human) [2]): 0.5%
- kinase still bound, per cent of control (TGFBR2 (human)): 11%
- kinase still bound, per cent of control (RIPK4 (human)): 1%
- kinase still bound, per cent of control [3]: 2.6%
- kinase still bound, per cent of control (PAK6 (human)): 30%
- kinase still bound, per cent of control (LATS2 (human)): 31%
- kinase still bound, per cent of control (PAK7 (human)): 34%
- kinase still bound, per cent of control (DAPK1 (human)): 32%
- kinase still bound, per cent of control (ACVR2B (human)): 24%
- kinase still bound, per cent of control (PHKG2 (human)): 29%
- kinase still bound, per cent of control (CAMK1D (human)): 29%
- kinase still bound, per cent of control (EPHA3 (human)): 32%
- kinase still bound, per cent of control (GAK (human)): 28%
- kinase still bound, per cent of control (AAK1 (human)): 26%
- kinase still bound, per cent of control (MAPK10 (human)): 16%
- kinase still bound, per cent of control (STK17A (human)): 2.4%
- kinase still bound, per cent of control (TAOK3 (human)): 5.6%
- kinase still bound, per cent of control (CSK (human)): 30%
- kinase still bound, per cent of control (DDR1 (human)): 22%
- kinase still bound, per cent of control (MYLK (human)): 21%
- kinase still bound, per cent of control (PLK4 (human)): 1%
- kinase still bound, per cent of control (MAP2K3 (human)): 20%
- kinase still bound, per cent of control (HIPK1 (human)): 0.15%
- kinase still bound, per cent of control (DAPK3 (human)): 15%
- kinase still bound, per cent of control (CAMK2B (human)): 29%
- IC50 (PIM1 (human) [4]): 5.05 µM
- IC50 (PIM2 (human) [5]): 0.662 µM

SMILES: O=C1NC(=O)C(=Cc2ccc(-c3ccc(S(=O)(=O)N4CCNCC4)cc3)o2)C(=O)N1
- kinase still bound, per cent of control (PIK3CD (human)): 0%
- kinase still bound, per cent of control (PIK3C2B (human)): 0.6%
- kinase still bound, per cent of control (MAP2K4 (human)): 12%
- kinase still bound, per cent of control [6]: 16%
- kinase still bound, per cent of control (PIK3CB (human)): 0%
- kinase still bound, per cent of control [7]: 6.9%
- kinase still bound, per cent of control (MAP2K2 (human)): 17%
- kinase still bound, per cent of control [8]: 17%
